{
  "source": "patent US7521596B2",
  "about": "“Method for controlling weeds” (Sumitomo Chemical Company, Limited, priority 2004, dated 2009)",
  "key": {"[1]": {"test_system": "recombinant soybean line J18 (cytochrome P450 of SEQ ID NO: 1 introduced)", "assay": "Spray test of the present herbicidal compound, recombinant soybean line J18", "assay_type": "in vivo", "details": "for average phytotoxicity score (sensitivity to carfentrazone-ethyl): J18 (T2 generation), sprayed 21st day after seeding, scored 2 weeks after spraying, score 0 (died) to 3", "method": "(§1) Seeds of these lines were seeded and grown in growing pots containing horicultural soil (Kureha Engei Baido manufactured by Kureha Chemical Industry Co. Ltd.) When trifoliate leaves were developed after germination, the seedlings were transplanted to growing pots containing the soil prepared by mixing equal amount of the Kureha Engei Baido and field soil, and then grown in a greenhouse according to the method of Example 17 of WO0304370 to obtain seeds of T2 generation of each line. Among the obtained T2 generations, seeds of T2 generation of the line J18 (seeds of the recombinant soybean) were seeded in growing pots containing horicultural sail (Kureha Engei Baido manufactured by Kureha Chemical Industry Co., Ltd.) and grown. According to the above method described in Example 5, it was sprayed carfentrazone-ethyl to the seedling on the 21st day after seeding, and compared the sensitivity to carfentrazone-ethyl of the recombinant soybean with the sensitivity to carfentrazone-ethyl of wild-type soybean line (cv. Jack) at 2 weeks after spraying. The spray liquid of the above herbicidal compound was prepared as follows.\n(§2) The spray liquid was prepared by diluting dry flowable preparation of carfentrazone-ethyl (AIM™ HERBICIDE manufactured by FMC, containing 40% (w/w) of carfentrazone-ethyl) with Agri dex (manufactured by Valent) 1% aqueous solution to be contained 1.79 mg, 3.57 mg or 7.14 mg of carfentrazone-ethyl in the spray liquid.\n(§3) The sensitivity of the recombinant soybean to carfentrazone-ethyl was decided by scoring it based on the index below, and calculating the average of the scores with respect to each recombinant soybean line and applied amount for it. The same spray test of the wild-type soybean line (cv. Jack) was carried out as a negative control.\n(§4) <Scoring Index Based on the Degree of Phytotoxicity as Dying of the Individual and Browning or Whitening of the Leaves or Stems Caused by Compound Spraying>"}, "[2]": {"test_system": "wild-type soybean line (cv. Jack)", "assay": "Spray test of the present herbicidal compound, wild-type soybean (negative control)", "assay_type": "in vivo", "details": "sprayed 21st day after seeding, scored 2 weeks after spraying, score 0 (died) to 3", "method": "as §1, §2, §3, §4"}, "[3]": {"test_system": "wild-type tobacco line SR-1", "assay": "Spray test of the present herbicidal compound, wild-type tobacco (negative control)", "assay_type": "in vivo, Nicotinia tabacum", "details": "wild type SR-1, score 0 (died) to 3; for average phytotoxicity score (sensitivity to carfentrazone-ethyl): applied as AIM HERBICIDE dry flowable; for average phytotoxicity score (sensitivity to flufenpyr-ethyl): about 2 weeks after spraying, average of 4 individuals", "method": "(§5) Seeds of the homozygote lines selected in Example 4 (seeds of lines #17 and #25 of the recombinant tobacco to which plasmid pBI-NdG6-rSt-1609soy has been introduced, and seeds of the line 1584soy#16 of the recombinant tobacco to which plasmid pBI-NdG6-rSt-1584soy has been introduced) were aseptically seeded on MS agar medium containing 100 mg/L kanamycin. Also, seeds of the wild-type tobacco line SR-1 were aseptically seeded on MS agar medium. After about 2 weeks, germinated seedlings were observed.\n(§6) Germinated individuals were transplanted to growing pots containing horicultural soil (Kureha Engei Baido manufactured by Kureha Chemical Industry Co., Ltd.), acclimated to the external environment in a growth chamber, then grown for about 2 weeks at 23° C., 23 hours of day length in a growth chamber. Thus obtained plants were applied to the spray test of the present herbicidal compound, flufenpyr-ethyl.\n(§7) Flufenpyr-ethyl was dissolved in Solvesso cocktail mixed Solvesso 200 (manufactured by Valent) and Sorpol 3816 (manufactured Sumitomo Chemical Co., Ltd.) at the ratio of 87.5:10 such that flufenpyr-ethyl was respectively contained 0.89 mg or 1.78 mg in 0.5 mL Solvesso cocktail. The spray liquid of flufenpyr-ethyl was prepared as the aqueous solution containing the Solvesso cocktail of 2.5% concentration in which the compound was dissolved and Agri dex of 1% concentration (manufactured by Valent) as adjuvant.\n(§8) Spray of the spray liquid to the plant above described was carried out, by using running automatic spray machine (manufactured by Nambasekkei), such that spray liquid 20 mL was sprayed to the recombinant tobacco seedlings put at 0.9 square meter of the sprayed area in a uniform way. After about 2 weeks, the sensitivity of the applied recombinant tobacco line to flufenpyr-ethyl was compared to the sensitivity of the wild-type tobacco line SR-1 to flufenpyr-ethyl. In the above spray test, 4 individuals of the recombinant tobacco were used with respect to each applied amount of flufenpyr-ethyl. The sensitivity of the recombinant tobacco to flufenpyr-ethyl was decided by scoring it based on the index below, and calculating the average of the score of 4 individuals with respect to each recombinant tobacco line and applied amount for it. The same spray test of wild-type line SR-1 was carried out as a negative control.\nas §4\n(§9) As to the homozygote line 1609soy#25 selected in Example 4 from among the recombinant tobacco lines to which a DNA having a nucleotide sequence encoding the amino acid sequence of SEQ ID NO: 1 has been introduced, and the wild-type tobacco line SR-1, their sensitivities to the compound (I), carfentrazone-ethyl and sulfentrazone were investigated according to the method described in Example 5 (evaluation by scoring index based on the degree of phytotoxicity as dying of the individual and browning or whitening of the leaves or stems caused by compound spraying). […]"}, "[4]": {"test_system": "recombinant tobacco line 1609soy#25 (cytochrome P450 of SEQ ID NO: 1 introduced)", "assay": "Spray test of the present herbicidal compound, recombinant tobacco line 1609soy#25", "assay_type": "in vivo, Nicotinia tabacum", "details": "score 0 (died) to 3; for average phytotoxicity score (sensitivity to carfentrazone-ethyl): applied as AIM HERBICIDE dry flowable; for average phytotoxicity score (sensitivity to flufenpyr-ethyl): about 2 weeks after spraying, average of 4 individuals", "method": "as §5, §6, §7, §8, §4, §9"}, "[5]": {"test_system": "recombinant tobacco line 1584soy#16 (cytochrome P450 of SEQ ID NO: 2 introduced)", "assay": "Spray test of the present herbicidal compound, recombinant tobacco line 1584soy#16", "assay_type": "in vivo, Nicotinia tabacum", "details": "about 2 weeks after spraying, average of 4 individuals, score 0 (died) to 3", "method": "as §5, §6\n(§10) Flufenpyr-ethyl was dissolved in Solvesso cocktail mixed Solvesso 200 (manufactured by Valent) and Sorpol 3816 (manufactured Sumitomo Chemical Co., Ltd.) at the ratio of 87.5:10 such that flufenpyr-ethyl was respectively contained 0.89 mg or 1.78 mg in 0.5 mL Solvesso cocktail. […]"}, "[6]": {"test_system": "recombinant tobacco line 1609soy#17 (cytochrome P450 of SEQ ID NO: 1 introduced)", "assay": "Spray test of the present herbicidal compound, recombinant tobacco line 1609soy#17", "assay_type": "in vivo, Nicotinia tabacum", "details": "about 2 weeks after spraying, average of 4 individuals, score 0 (died) to 3", "method": "as §5, §6, §10"}},
  "data": [
    {"molecule": "CCOC(=O)C(Cl)Cc1cc(-n2nc(C)n(C(F)F)c2=O)c(F)cc1Cl", "note": "(stereo not drawn) [carfentrazone-ethyl]", "values": [
      {"measurement": "average phytotoxicity score (sensitivity to carfentrazone-ethyl)", "setting": "[1]; 1.79 mg/20 mL spray liquid", "result": 1.8},
      {"measurement": "average phytotoxicity score (sensitivity to carfentrazone-ethyl)", "setting": "[1]; 3.57 mg/20 mL spray liquid", "result": 1.4},
      {"measurement": "average phytotoxicity score (sensitivity to carfentrazone-ethyl)", "setting": "[1]; 7.14 mg/20 mL spray liquid", "result": 0.9},
      {"measurement": "phytotoxicity / resistance as compared to the wild-type plant cv. Jack", "setting": "[1]; line J18, 1.79, 3.57 or 7.14 mg in the spray liquid", "result": "the phytotoxicity was reduced and remarkable improvement of the resistance was recognized"},
      {"measurement": "average phytotoxicity score (sensitivity to carfentrazone-ethyl)", "setting": "[2]; 1.79 mg/20 mL spray liquid", "result": 1.0},
      {"measurement": "average phytotoxicity score (sensitivity to carfentrazone-ethyl)", "setting": "[2]; 3.57 mg/20 mL spray liquid", "result": 0.9},
      {"measurement": "average phytotoxicity score (sensitivity to carfentrazone-ethyl)", "setting": "[2]; 7.14 mg/20 mL spray liquid", "result": 0.3},
      {"measurement": "average phytotoxicity score (sensitivity to carfentrazone-ethyl)", "setting": "[3]; 0.446 mg/20 mL spray liquid", "result": 1.0},
      {"measurement": "average phytotoxicity score (sensitivity to carfentrazone-ethyl)", "setting": "[3]; 0.893 mg/20 mL spray liquid", "result": 0.0},
      {"measurement": "average phytotoxicity score (sensitivity to carfentrazone-ethyl)", "setting": "[3]; 4.46 mg/20 mL spray liquid", "result": 0.0},
      {"measurement": "average phytotoxicity score (sensitivity to carfentrazone-ethyl)", "setting": "[4]; 0.446 mg/20 mL spray liquid", "result": 2.5},
      {"measurement": "average phytotoxicity score (sensitivity to carfentrazone-ethyl)", "setting": "[4]; 0.893 mg/20 mL spray liquid", "result": 1.8},
      {"measurement": "average phytotoxicity score (sensitivity to carfentrazone-ethyl)", "setting": "[4]; 4.46 mg/20 mL spray liquid", "result": 1.5}
    ]},
    {"molecule": "CCOC(=O)COc1cc(-n2ncc(C(F)(F)F)c(C)c2=O)c(F)cc1Cl", "note": "[flufenpyr-ethyl]", "values": [
      {"measurement": "average phytotoxicity score (sensitivity to flufenpyr-ethyl)", "setting": "[5]; 0.89 mg/20 mL spray liquid", "result": 3.0},
      {"measurement": "average phytotoxicity score (sensitivity to flufenpyr-ethyl)", "setting": "[5]; 1.78 mg/20 mL spray liquid", "result": 3.0},
      {"measurement": "average phytotoxicity score (sensitivity to flufenpyr-ethyl)", "setting": "[6]; 0.89 mg/20 mL spray liquid", "result": 3.0},
      {"measurement": "average phytotoxicity score (sensitivity to flufenpyr-ethyl)", "setting": "[6]; 1.78 mg/20 mL spray liquid", "result": 3.0},
      {"measurement": "average phytotoxicity score (sensitivity to flufenpyr-ethyl)", "setting": "[3]; 0.89 mg/20 mL spray liquid", "result": 1.7},
      {"measurement": "average phytotoxicity score (sensitivity to flufenpyr-ethyl)", "setting": "[3]; 1.78 mg/20 mL spray liquid", "result": 0.0},
      {"measurement": "average phytotoxicity score (sensitivity to flufenpyr-ethyl)", "setting": "[4]; 0.89 mg/20 mL spray liquid", "result": 3.0},
      {"measurement": "average phytotoxicity score (sensitivity to flufenpyr-ethyl)", "setting": "[4]; 1.78 mg/20 mL spray liquid", "result": 3.0}
    ]}
  ]
}
